Test [1] relates to rat air pouch model of crystal-induced arthropathy (MSU). The test can be described thus: Rat air pouch model, Example 7 (Compounds 3 and 4 in combination with colchicine). In kind it is in vivo. The procedure:
(§1) Sodium hydroxide (40 g, Fisher Scientific) was dissolved in de-ionized water (100 mL, dH2O) to provide a 10N solution. Uric acid (16 g, Sigma) was added to de-ionized water (3400 mL) containing sodium hydroxide solution (11.8 mL, 10N) and heated to 60° C. with constant stirring. […] The resulting clear solution was cooled to 4-8° C., resulting in the formation of crystals, which were isolated by filtration, washed three times with de-ionized wa[…]) and dried at 37° C. The dried mono sodium urate crystals were sifted into an air-tight container for storage. […] Methylcellulose (0.4 g, Sigma) was dissolved in de-ionized water (100 mL) to provide a 0.4% solution used as vehicle. […] Test compounds were suspended in vehicle to provide the desired concentrations, and diluted accordingly. […] Male Sprague-Dawley rats (Charles River Laboratories, 160-180 g) were received, individually examined and housed in cages of five rats each. The animals were in apparent good health with no clinical signs of disease or distress. The rats were placed in quarantine with daily inspections, ear notched for identification purposes and shaved at the nape of the neck. The rats were anesthetized (isoflurane), and the nape of the neck was cleansed with 70% isopropanol (Butler Animal Health Supply) followed by povidone-iodine solution (Ricca Chemical Co.). Sterile air (30 mL, 0.2 μm, Millipore) was injected subcutaneously using a 23 G×11⁄2 inch needle fixed to a 30 mL syringe. The rats were returned to routine housing with no adverse reactions observed. The rats were anesthetized (isoflurane), and the nape of the neck was cleansed with 70% isopropanol (Butler Animal Health Supply) followed by povidone-iodine solution (Ricca Chemical Co.). Sterile air (15 mL, 0.11 μm, Millipore) was injected subcutaneously using a 23 G×11⁄2 inch needle fixed to a 20 mL syringe. The rats were returned to routine housing with no adverse reactions observed. The rats were weighed and sorted into treatment groups based on average body weight. As appropriate, the rats were dosed orally with test compound or vehicle (saline alone). […] Thirty minutes after SC injection or two hours after PO dosing, MSU (15 mL) was injected into the air pouch using an 18 G×2 inch needle fitted to a 20 mL syringe. Control group was injected with 15 mL sterile saline (vehicle). The injection sites were closed (collodion, Macron) and the rats returned to their cages with no adverse effects observed. Four hours after MSU/saline injection, the rats were anesthetized and heparinized saline (5 mL, 10 U/mL) was injected into the air pouch. […] An aliquot of the exudate was transferred to green Eppendorf tubes for total white blood cell (WBC) measurement. After allowing the MSU crystals to settle out for ten minutes, an aliquot of the exudate was transferred to heparinized microtainer tubes (Becton Dickinson) for differential white blood cell counts. The remainder of the exudate was centrifuged and an aliquot of the supernatants was dispensed to labeled clear Eppendorf tubes and stored at -80° C. The rats were exsanguinated into pre-chilled serum separator tubes, processed to serum, and 0.5 mL aliquot was stored at -80° C. in labeled Eppendorf tubes. […] [table]

The test system is the same in test [2]. The test can be described thus: Rat air pouch model of crystal-induced arthropathy, Example 4 (Compound 2). It counts as in vivo. How it is done:
as §1, with “Sterile air (30 mL, 0.2 μm, Millipore) was injected subcutaneously using a 23 G×11⁄2 inch needle fixed to a 30 mL syringe.” left out, “Sterile air (15 mL, 0.11 μm, Millipore) was injected subcutaneously using a 23 G×11⁄2 inch needle fixed to a 20 mL syringe.” left out

The target of another test is T1, CXCR-2 (Homo sapiens, UniProt P25025).
T1 sequence (P25025 1-360): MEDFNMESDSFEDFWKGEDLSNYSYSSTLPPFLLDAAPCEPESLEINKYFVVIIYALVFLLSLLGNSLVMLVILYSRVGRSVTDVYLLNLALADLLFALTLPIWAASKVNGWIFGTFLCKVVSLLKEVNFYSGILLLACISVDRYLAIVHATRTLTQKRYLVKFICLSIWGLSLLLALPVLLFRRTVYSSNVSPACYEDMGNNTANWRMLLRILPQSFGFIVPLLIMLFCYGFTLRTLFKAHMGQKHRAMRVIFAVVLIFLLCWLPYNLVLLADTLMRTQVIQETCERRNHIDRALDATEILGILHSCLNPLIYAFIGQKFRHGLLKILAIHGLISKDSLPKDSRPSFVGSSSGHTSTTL
The note with it: cited from earlier work.

Where [3] appears, read: 3.0 umol/kg PO + Colchicine 0.1 mpk SC, Group 10.
Setting [4] is: 1 umol/kg PO + Colchicine 0.1 mpk SC, Group 9.

For the compound `COc1cc2c(c(OC)c1OC)-c1ccc(OC)c(=O)cc1[C@@H](NC(C)=O)CC2` [Colchicine, COLCHICINE, reference compound], in test [1] (0.1 mpk SC, Group 3), the “Avg Exudate Vol” value is on record as 12 mL, the “Avg Total WBC” value is given as 240 ×10^6 and the Neutrophils is on record as 205 ×10^6. Further, in test [1] (1.0 mpk SC, Group 4), the “Avg Exudate Vol” value came out at 6 mL, the “Avg Total WBC” value is 22 ×10^6 and the Neutrophils is 10.8 ×10^6. Besides, in test [2] (1 mg/kg SC, Group 3), the “Avg Exudate Vol” value is reported as “***6.4 mL”, the “Avg Total WBC” value is “**17.6 ×10^6” and the Neutrophils result was “**11.0 ×10^6”.

For `CC[C@@H](Nc1c(Nc2cccc(C(=O)N(C)C)c2O)c(=O)c1=O)c1ccc(C)o1` [Compound 2, (R)-2-hydroxy-N,N-dimethyl-3-((2-((1-(5-methylfuran-2-yl)propyl)amino)-3,4-dioxocyclobut-1-en-1-yl)amino)benzamide], in test [2] (0.3 mg/kg PO, Group 4), the “Avg Exudate Vol” value worked out at 10.1 mL, the “Avg Total WBC” value was 145.2 ×10^6 and the Neutrophils is listed as 114.2 ×10^6. In test [2] (3 mg/kg PO, Group 5), the “Avg Exudate Vol” value worked out at 9.3 mL, the “Avg Total WBC” value is “*33.4 ×10^6” and the Neutrophils result is reported as “*19.8 ×10^6”. Moreover, in test [2] (30 mg/kg PO, Group 6), the “Avg Exudate Vol” value is “***6.8 mL”, the “Avg Total WBC” value was “*51.7 ×10^6” and the Neutrophils result is recorded as “**16.0 ×10^6”. At CXCR-2, the “inhibit CXCR-2” value is listed as “shown to inhibit CXCR-2”.

On to `C[C@@H](Oc1cc(NS(=O)(=O)N2CCC2)nc(SCc2cccc(F)c2F)n1)[C@@H](O)CO` [Compound 3, N-(2-((2,3-difluorobenzyl)thio)-6-(((2R,3S)-3,4-dihydroxybutan-2-yl)oxy)pyrimidin-4-yl)azetidine-1-sulfonamide], for which the “Avg Exudate Vol” value turned out to be 7.8 mL in test [1] (setting [3]); 11.1 mL in test [1] (3 umol/kg PO, Group 5); 7.4 mL in test [1] (30 umol/kg PO, Groups 6, 8). The “Avg Total WBC” value is listed as 120 ×10^6 in test [1] (setting [3]); 180 ×10^6 in test [1] (3 umol/kg PO, Group 5); 110 ×10^6 in test [1] (30 umol/kg PO, Groups 6, 8). The Neutrophils in test [1] (setting [3]) is given as 159 ×10^6; in test [1] (3 umol/kg PO, Group 5), 133 ×10^6; in test [1] (30 umol/kg PO, Groups 6, 8) it was 65.2 ×10^6. Moreover, the “inhibit CXCR-2” value at CXCR-2 is reported as “shown to inhibit CXCR-2”.

As for `CC1CN(S(=O)(=O)Nc2cc(O[C@H](C)[C@@H](O)CO)nc(SCc3ccc(F)cc3)n2)C1` [Compound 4, N-(6-(((2R,3S)-3,4-dihydroxybutan-2-yl)oxy)-2-((4-fluorobenzyl)thio)pyrimidin-4-yl)-3-methylazetidine-1-sulfonamide], in test [1] (setting [4]), the “Avg Exudate Vol” value was found to be 10.3 mL, the “Avg Total WBC” value was 210 ×10^6 and the Neutrophils is listed as 179 ×10^6. Moreover, in test [1] (1 umol/kg PO, Group 7), the “Avg Exudate Vol” value turned out to be 11.8 mL, the “Avg Total WBC” value is recorded as 160 ×10^6 and the Neutrophils is recorded as 121 ×10^6. For the same compound, in test [1] (30 umol/kg PO, Groups 6, 8), the “Avg Exudate Vol” value was determined as 8.1 mL, the “Avg Total WBC” value was 100 ×10^6 and the Neutrophils is on record as 69.6 ×10^6. Further, the “inhibit CXCR-2” value on CXCR-2 is reported as “shown to inhibit CXCR-2”.

(Values after patent publication US10772886B2, “CXCR-2 inhibitors for treating crystal arthropathy disorders” (ARDEA BIOSCIENCES, INC., priority 2016, dated 2020).)
